Measurements: ChEMBL document CHEMBL1143509, “Novel cyclopentane dicarboxamide sodium channel blockers as a potential treatment for chronic pain” (Bioorg Med Chem Lett, 2005)

What was measured:
[1] = target: T1, Sodium channel protein type 9 subunit alpha (Homo sapiens, UniProt Q15858); experiment: In vitro inhibitory concentration against voltage-gated sodium channel Nav1.7 in voltage-ion-probe-reader (VIPR) assay; type: functional
[2] = Bioavailability in rat; type: ADME, organism-based; details: in vivo
[3] = Half life period of the compound was determined in rat; type: ADME; details: in vivo
[4] = Clearance value of the compound was determined in plasma of rat; type: ADME, organism-based; details: read-out: Clp
[5] = target: T1, Sodium channel protein type 9 subunit alpha; experiment: Inhibitory constant against voltage-gated sodium channel Nav1.7 in electrophysiology assays (EP); type: functional

T1 sequence (Q15858 whole entry): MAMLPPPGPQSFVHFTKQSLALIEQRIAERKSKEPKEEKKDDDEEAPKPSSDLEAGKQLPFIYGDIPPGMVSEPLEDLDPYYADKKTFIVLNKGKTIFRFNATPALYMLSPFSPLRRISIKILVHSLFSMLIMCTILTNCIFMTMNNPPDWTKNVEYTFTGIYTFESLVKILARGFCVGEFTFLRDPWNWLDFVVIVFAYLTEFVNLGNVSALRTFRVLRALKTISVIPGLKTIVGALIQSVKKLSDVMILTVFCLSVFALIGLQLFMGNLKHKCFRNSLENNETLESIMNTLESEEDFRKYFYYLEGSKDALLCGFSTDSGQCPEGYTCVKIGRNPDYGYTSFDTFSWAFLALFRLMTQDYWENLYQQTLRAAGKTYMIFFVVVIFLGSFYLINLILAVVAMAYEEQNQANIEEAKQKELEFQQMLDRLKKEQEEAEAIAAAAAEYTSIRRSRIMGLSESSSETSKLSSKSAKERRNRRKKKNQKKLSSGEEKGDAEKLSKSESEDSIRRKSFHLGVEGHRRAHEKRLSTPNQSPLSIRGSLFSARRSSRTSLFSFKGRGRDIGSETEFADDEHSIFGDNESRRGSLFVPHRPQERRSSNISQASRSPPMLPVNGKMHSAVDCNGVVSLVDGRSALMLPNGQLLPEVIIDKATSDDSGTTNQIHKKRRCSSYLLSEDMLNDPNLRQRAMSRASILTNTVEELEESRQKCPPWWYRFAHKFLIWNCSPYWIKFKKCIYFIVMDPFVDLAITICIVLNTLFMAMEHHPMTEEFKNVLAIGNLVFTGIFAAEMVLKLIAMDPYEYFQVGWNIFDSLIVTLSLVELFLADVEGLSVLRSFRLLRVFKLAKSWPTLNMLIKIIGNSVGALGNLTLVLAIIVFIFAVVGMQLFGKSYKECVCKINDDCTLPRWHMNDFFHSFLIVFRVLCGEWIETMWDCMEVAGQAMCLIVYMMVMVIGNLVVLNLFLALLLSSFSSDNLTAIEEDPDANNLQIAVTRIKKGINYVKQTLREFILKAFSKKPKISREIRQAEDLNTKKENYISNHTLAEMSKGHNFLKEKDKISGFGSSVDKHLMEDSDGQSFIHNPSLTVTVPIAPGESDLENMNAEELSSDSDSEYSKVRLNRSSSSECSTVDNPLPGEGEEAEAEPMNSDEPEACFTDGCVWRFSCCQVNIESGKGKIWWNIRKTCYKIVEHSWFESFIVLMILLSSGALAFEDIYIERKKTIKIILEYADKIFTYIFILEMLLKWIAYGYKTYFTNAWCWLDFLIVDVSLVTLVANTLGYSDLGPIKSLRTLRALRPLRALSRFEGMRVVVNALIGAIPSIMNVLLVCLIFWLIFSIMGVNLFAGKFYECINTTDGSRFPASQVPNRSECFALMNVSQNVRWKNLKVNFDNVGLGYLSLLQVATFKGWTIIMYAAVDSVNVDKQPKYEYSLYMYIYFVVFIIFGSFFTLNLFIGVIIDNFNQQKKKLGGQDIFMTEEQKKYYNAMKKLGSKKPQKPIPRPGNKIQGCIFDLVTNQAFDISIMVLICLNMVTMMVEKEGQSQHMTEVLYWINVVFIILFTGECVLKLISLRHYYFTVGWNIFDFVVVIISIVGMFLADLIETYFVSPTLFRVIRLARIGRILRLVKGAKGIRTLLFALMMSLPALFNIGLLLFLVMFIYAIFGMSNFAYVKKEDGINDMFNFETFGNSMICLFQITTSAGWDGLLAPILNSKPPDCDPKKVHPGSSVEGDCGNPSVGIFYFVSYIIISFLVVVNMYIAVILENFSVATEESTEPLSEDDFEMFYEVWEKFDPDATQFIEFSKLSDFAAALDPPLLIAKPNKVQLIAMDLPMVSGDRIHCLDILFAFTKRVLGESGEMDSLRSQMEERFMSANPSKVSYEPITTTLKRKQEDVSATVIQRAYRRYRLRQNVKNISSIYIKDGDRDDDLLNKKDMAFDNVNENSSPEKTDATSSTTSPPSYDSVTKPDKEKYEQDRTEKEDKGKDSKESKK

**Q.** With NS(=O)(=O)c1ccccc1-c1ccc(CNC(=O)[C@H]2CC[C@@H]2C(=O)NCc2ccc(-c3cccs3)s2)cc1 (racemic) as the compound, how does the IC50 [1] read?
**A.** 210 nM

**Q.** Which bioavailability [2] does the source give for CN(Cc1ccc(-c2ccccc2S(N)(=O)=O)cc1)C(=O)[C@H]1CCC[C@@H]1C(=O)NCc1ccc(-c2cccs2)s1 (racemic) here?
**A.** 3.3%

**Q.** And the half-life [3]?
**A.** 72 min

**Q.** And the clearance [4]?
**A.** 13 mL/min/kg

**Q.** And the IC50 [1]?
**A.** 760 nM

**Q.** Which IC50 [1] does the source give for NS(=O)(=O)c1ccccc1-c1ccc(CNC(=O)CC(=O)NCc2ccc(-c3cccs3)s2)cc1 here?
**A.** 860 nM

**Q.** For NS(=O)(=O)c1ccccc1-c1ccc(CNC(=O)CCCC(=O)NCc2ccc(-c3cccs3)s2)cc1, which IC50 [1] is on record?
**A.** 3200 nM

**Q.** Which results are given for CN(Cc1ccc(-c2ccccc2S(N)(=O)=O)cc1)C(=O)[C@H]1CCC[C@@H]1C(=O)NCc1cccc(OC(F)(F)F)c1 (racemic)?
**A.** Ki [5]: 530 nM; IC50 [1]: 1300 nM

**Q.** With CN(Cc1ccc(-c2ccccc2S(N)(=O)=O)cc1)C(=O)[C@H]1CCC[C@@H]1C(=O)N(C)Cc1ccc(-c2cccs2)s1 (racemic) as the compound, how does the IC50 [1] read?
**A.** > 10000 nM

**Q.** Which Ki [5] does the source give for CN(Cc1ccc(-c2ccccc2S(N)(=O)=O)cc1)C(=O)[C@H]1CCC[C@@H]1C(=O)NCc1ccc(OC(F)(F)F)cc1 (racemic) here?
**A.** 210 nM

**Q.** What about the bioavailability [2] of the same compound?
**A.** 44%

**Q.** And the half-life [3]?
**A.** 58.8 min

**Q.** What about the clearance [4] of the same compound?
**A.** 14 mL/min/kg

**Q.** And the IC50 [1]?
**A.** 830 nM

**Q.** Which results are given for Cc1ccccc1-c1ccc(CNC(=O)[C@H]2CCC[C@@H]2C(=O)NCc2ccc(-c3ccccc3S(N)(=O)=O)cc2)cc1 (racemic)?
**A.** Ki [5]: 370 nM; IC50 [1]: 2100 nM

**Q.** With NS(=O)(=O)c1ccccc1-c1ccc(CNC(=O)[C@H]2CCC[C@@H]2C(=O)NCc2ccccc2)cc1 (racemic) as the compound, how does the IC50 [1] read?
**A.** 5000 nM

**Q.** Which results are given for COc1ccc(CNC(=O)[C@H]2CCC[C@@H]2C(=O)NCc2ccc(-c3ccccc3S(N)(=O)=O)cc2)cc1 (racemic)?
**A.** Ki [5]: 12000 nM; IC50 [1]: 5000 nM

**Q.** With CC(NC(=O)[C@H]1CCC[C@@H]1C(=O)NCc1ccc(-c2ccccc2S(N)(=O)=O)cc1)c1ccc(-c2cccs2)s1 (mixture of isomers) as the compound, how does the IC50 [1] read?
**A.** 10000 nM

**Q.** With NS(=O)(=O)c1ccccc1-c1ccc(CNC(=O)c2cccc(C(=O)NCc3ccc(-c4cccs4)s3)c2)cc1 as the compound, how does the Ki [5] read?
**A.** 6200 nM

**Q.** And the IC50 [1]?
**A.** 2900 nM

**Q.** What does the source list for NS(=O)(=O)c1ccccc1-c1ccc(CNC(=O)CCC(=O)NCc2ccc(-c3cccs3)s2)cc1?
**A.** Ki [5]: 150 nM; bioavailability [2]: 1.9%; half-life [3]: 30 min; clearance [4]: 68 mL/min/kg; IC50 [1]: 150 nM

**Q.** What does the source list for COc1ccc(CNC(=O)[C@H]2CCC[C@@H]2C(=O)N(C)Cc2ccc(-c3ccccc3S(N)(=O)=O)cc2)cc1 (racemic)?
**A.** Ki [5]: 2100 nM; IC50 [1]: 10000 nM

**Q.** For CC(NC(=O)[C@H]1CCC[C@@H]1C(=O)NCc1ccc(-c2cccs2)s1)c1ccc(-c2ccccc2S(N)(=O)=O)cc1 (mixture of isomers), which Ki [5] is on record?
**A.** 50 nM

**Q.** And the IC50 [1]?
**A.** 1400 nM

**Q.** Which Ki [5] does the source give for NS(=O)(=O)c1ccccc1-c1ccc(CNC(=O)/C=C\C(=O)NCc2ccc(-c3cccs3)s2)cc1 here?
**A.** 410 nM

**Q.** What about the IC50 [1] of the same compound?
**A.** 520 nM

**Q.** Which Ki [5] does the source give for NS(=O)(=O)c1ccccc1-c1ccc(CNC(=O)[C@H]2CCC[C@@H]2C(=O)NCc2ccc(-c3ccccc3)cc2)cc1 (racemic) here?
**A.** 30 nM

**Q.** What about the IC50 [1] of the same compound?
**A.** 660 nM

**Q.** Which Ki [5] does the source give for NS(=O)(=O)c1ccccc1-c1ccc(CNC(=O)[C@H]2CCC[C@@H]2C(=O)NCc2ccc(-c3ccccc3C(F)(F)F)cc2)cc1 (racemic) here?
**A.** 510 nM

**Q.** And the IC50 [1]?
**A.** 370 nM

**Q.** Which results are given for NS(=O)(=O)c1ccccc1-c1ccc(CNC(=O)[C@H]2CCC[C@@H]2C(=O)NCc2ccc(OC(F)(F)F)cc2)cc1 (racemic)?
**A.** Ki [5]: 360 nM; IC50 [1]: 300 nM

**Q.** Which IC50 [1] does the source give for CC(C)(CC(=O)NCc1ccc(-c2ccccc2S(N)(=O)=O)cc1)C(=O)NCc1ccc(-c2cccs2)s1 here?
**A.** 2300 nM

**Q.** Which IC50 [1] does the source give for CN(Cc1ccc(-c2ccccc2S(N)(=O)=O)cc1)C(=O)[C@H]1CCC[C@@H]1C(=O)NCc1ccccc1 (racemic) here?
**A.** > 10000 nM

**Q.** Which Ki [5] does the source give for COc1ccccc1-c1ccc(CNC(=O)[C@H]2CCC[C@@H]2C(=O)NCc2ccc(-c3ccccc3S(N)(=O)=O)cc2)cc1 (racemic) here?
**A.** 690 nM

**Q.** What about the IC50 [1] of the same compound?
**A.** 660 nM

**Q.** For CC(C(=O)NCc1ccc(-c2ccccc2S(N)(=O)=O)cc1)C(C)C(=O)NCc1ccc(-c2cccs2)s1 (stereo not drawn), which IC50 [1] is on record?
**A.** 1400 nM

**Q.** For CN(Cc1ccc(-c2ccccc2S(N)(=O)=O)cc1)C(=O)[C@H]1CCC[C@@H]1C(=O)NCc1ccc(C(F)(F)F)cc1 (racemic), which Ki [5] is on record?
**A.** 280 nM

**Q.** What about the IC50 [1] of the same compound?
**A.** 2500 nM

**Q.** Which IC50 [1] does the source give for NS(=O)(=O)c1ccccc1-c1ccc(CNC(=O)[C@H]2CCC[C@@H]2C(=O)NCc2cccc(OC(F)(F)F)c2)cc1 (racemic) here?
**A.** 1100 nM

**Q.** Which Ki [5] does the source give for NS(=O)(=O)c1ccccc1-c1ccc(CNC(=O)[C@H]2CCC[C@@H]2C(=O)NCc2ccc(-c3cccs3)s2)cc1 (racemic) here?
**A.** 60 nM

**Q.** What about the bioavailability [2] of the same compound?
**A.** 1.2%

**Q.** And the half-life [3]?
**A.** 18 min

**Q.** What about the clearance [4] of the same compound?
**A.** 39 mL/min/kg

**Q.** And the IC50 [1]?
**A.** 370 nM

**Q.** With NS(=O)(=O)c1ccccc1-c1ccc(CNC(=O)[C@H]2CCC[C@H]2C(=O)NCc2ccc(-c3cccs3)s2)cc1 (racemic) as the compound, how does the Ki [5] read?
**A.** 670 nM

**Q.** And the IC50 [1]?
**A.** 1600 nM

**Q.** What does the source list for NS(=O)(=O)c1ccccc1-c1ccc(CNC(=O)[C@H]2CCCC[C@@H]2C(=O)NCc2ccc(-c3cccs3)s2)cc1 (racemic)?
**A.** Ki [5]: 2100 nM; IC50 [1]: 1400 nM

**Q.** Which results are given for C=C1[C@H](C(=O)NCc2ccc(-c3ccccc3S(N)(=O)=O)cc2)[C@H]1C(=O)NCc1ccc(-c2cccs2)s1 (racemic)?
**A.** Ki [5]: 5700 nM; IC50 [1]: 840 nM

**Q.** Which results are given for CN(Cc1ccc(-c2ccccc2S(N)(=O)=O)cc1)C(=O)CCC(=O)NCc1cccc(OC(F)(F)F)c1?
**A.** bioavailability [2]: 27%; half-life [3]: 30 min; clearance [4]: 141 mL/min/kg

**Q.** For NS(=O)(=O)c1ccccc1-c1ccc(CNC(=O)[C@H]2CCC[C@@H]2C(=O)NCc2ccc([N+](=O)[O-])cc2)cc1 (racemic), which Ki [5] is on record?
**A.** 2000 nM

**Q.** What about the IC50 [1] of the same compound?
**A.** 2800 nM

**Q.** For CC(NC(=O)[C@H]1CCC[C@@H]1C(=O)N(C)Cc1ccc(-c2ccccc2S(N)(=O)=O)cc1)c1ccc(-c2cccs2)s1 (mixture of isomers), which IC50 [1] is on record?
**A.** 10000 nM

**Q.** For NS(=O)(=O)c1ccccc1-c1ccc(CNC(=O)c2ccccc2C(=O)NCc2ccc(-c3cccs3)s2)cc1, which Ki [5] is on record?
**A.** 140 nM

**Q.** What about the IC50 [1] of the same compound?
**A.** 2200 nM

**Q.** For CN(Cc1ccc(-c2cccs2)s1)C(=O)[C@H]1CCC[C@@H]1C(=O)NCc1ccc(-c2ccccc2S(N)(=O)=O)cc1 (racemic), which IC50 [1] is on record?
**A.** 5300 nM
